Source: BigSolDB 2.1

O=c1cc[nH]c(=O)[nH]1
solubility (mole fraction)
Conditions | 283.15 K | 288.15 K | 293.15 K | 298.15 K | 303.15 K | 308.15 K | 313.15 K | 318.15 K
in ethanol | 7.7e-05 | 9.1e-05 | 0.000113 | 0.000135 | 0.000166 | 0.000212 | 0.000248 | 0.000296
in isopropanol | 6.6e-05 | 7.6e-05 | 0.000105 | 0.00014 | 0.000169 | 0.000216 | 0.000245 | 0.000281
in methanol | 0.000152 | 0.000166 | 0.000206 | 0.000253 | 0.000307 | 0.000362 | 0.000414 | 0.000519
in water | 0.000166 | 0.000209 | 0.000264 | 0.000332 | 0.00042 | 0.000513 | 0.000613 | 0.000738
